Columns and labels:
Type in all cases: in vivo
Monochoria vaginalis = assay: Test Example 1: herbicidal activity, application before weed generation in submerged conditions (symbol C); conditions: application herbicide amount 320 g/ha
In short: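 Steps: alluvial soil flooded to 4 cm; weed seeds sown together; rice seedlings (2.5 leaf) transplanted; diluted emulsion applied to water surface the same day as sowing; plants grown at 25–30 °C in greenhouse; herbicidal effect rated on a 0–5 scale at 3 weeks.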

transplanted rice plant = assay: Test Example 1: effect on crop, application before weed generation in submerged conditions (symbol a); conditions: application herbicide amount 320 g/ha
In short: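 Rice at 2.5 leaf stage transplanted into submerged soil (4 cm depth) sown with three weed species; herbicide applied before weed emergence.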

Leptochloa chinensis = assay: Test Example 3: herbicidal effect by foliage application, Wagner pot (symbol D); conditions: application herbicide amount 320 g/ha
In short: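 Plants sown in submerged alluvial soil (water depth 0.1–0.5 cm) in a 25–30 °C greenhouse and grown 14 days. An emulsion of the compound diluted in water to a set herbicide amount was sprayed uniformly on foliage. Effect on each plant scored 3 weeks after application.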

Setaria viridis = assay: Test Example 4: herbicidal effect by soil treatment (symbol G); conditions: for G (Setaria viridis) herbicidal effect grade: application herbicide amount 320 g/ha; for G: Setaria viridis, herbicidal effect grade: 320 g/ha
In short: (§1)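 Seeds were sown in sterilized diluvial soil, covered with about 1.5 cm of soil, and the soil surface was sprayed with a water-diluted emulsion of the compound at a predetermined rate. Plants grew in a greenhouse at 25° C. to 30° C.; effects were scored visually 3 weeks after application.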

Avena fatua = assay: Test Example 4: herbicidal effect by soil treatment (symbol I); conditions: for I (Avena fatua) herbicidal effect grade: application herbicide amount 320 g/ha; for I: Avena fatua, herbicidal effect grade: 320 g/ha
In short: as §1

Alopecurus myosuroides = assay: Test Example 4: herbicidal effect by soil treatment (symbol J); conditions: for J (Alopecurus myosuroides) herbicidal effect grade: application herbicide amount 320 g/ha; for J: Alopecurus myosuroides, herbicidal effect grade: 320 g/ha
In short: as §1

Apera spica-venti = assay: Test Example 4: herbicidal effect by soil treatment (symbol L); conditions: for L (Apera spica-venti) herbicidal effect grade: application herbicide amount 320 g/ha; for L: Apera spica-venti, herbicidal effect grade: 320 g/ha
In short: as §1

Chenopodium album [1] = assay: Test Example 4: herbicidal effect by soil treatment (symbol O); conditions: for O (Chenopodium album) herbicidal effect grade: application herbicide amount 320 g/ha; for O: Chenopodium album, herbicidal effect grade: 320 g/ha
In short: as §1

Stellaria media [2] = assay: Test Example 4: herbicidal effect by soil treatment (symbol P); conditions: for P (Stellaria media) herbicidal effect grade: application herbicide amount 320 g/ha; for P: Stellaria media, herbicidal effect grade: 320 g/ha
In short: as §1

Veronica persica = assay: Test Example 4: herbicidal effect by soil treatment (symbol R); conditions: for R (Veronica persica) herbicidal effect grade: application herbicide amount 320 g/ha; for R: Veronica persica, herbicidal effect grade: 320 g/ha
In short: as §1

[3] = tested on: Echinochloa crus-galli var. crus-galli; assay: Test Example 5: herbicidal effect by foliage application, plastic box (symbol H); conditions: 320 g/ha, 3 weeks after application
In short: (§2)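 Post-emergence spray; diluvial soil (sterilized), ~1.5 cm seed cover; greenhouse 25–30° C; 14-day-old plants; water-diluted emulsion at predetermined dose; visual score at 3 wk post-treatment.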

Lolium multiflorum Lam. = assay: Test Example 5: herbicidal effect by foliage application, plastic box (symbol K); conditions: 320 g/ha, 3 weeks after application
In short: as §2

Abutilon theophrasti = assay: Test Example 5: herbicidal effect by foliage application, plastic box (symbol M); conditions: 320 g/ha, 3 weeks after application
In short: as §2

Amaranthus retroflexus = assay: Test Example 5: herbicidal effect by foliage application, plastic box (symbol N); conditions: 320 g/ha, 3 weeks after application
In short: as §2

Chenopodium album [4] = assay: Test Example 5: herbicidal effect by foliage application, plastic box (symbol O); conditions: 320 g/ha, 3 weeks after application
In short: as §2

Stellaria media [5] = assay: Test Example 5: herbicidal effect by foliage application, plastic box (symbol P); conditions: 320 g/ha, 3 weeks after application
In short: as §2

corn = assay: Test Example 5: effect on crop by foliage application, plastic box (symbol c); conditions: 320 g/ha, 3 weeks after application
In short: (§3)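 Crop and weed seeds sown in spots in sterilized diluvial soil in plastic boxes and covered with about 1.5 cm soil. Plants raised in a greenhouse at 25° C. to 30° C. for foliar application.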

rapeseed = assay: Test Example 5: effect on crop by foliage application, plastic box (symbol g); conditions: 320 g/ha, 3 weeks after application
In short: as §3

Row | SMILES | Herbicidal effect grade, C: Monochoria vaginalis (Monochoria vaginalis) | Effect grade on crop, a: transplanted rice plant (transplanted rice plant) | herbicidal effect on D (Leptochloa chinensis), grade 0-5 (Leptochloa chinensis) | G (Setaria viridis) herbicidal effect grade (Setaria viridis) | I (Avena fatua) herbicidal effect grade (Avena fatua) | J (Alopecurus myosuroides) herbicidal effect grade (Alopecurus myosuroides) | L (Apera spica-venti) herbicidal effect grade (Apera spica-venti) | O (Chenopodium album) herbicidal effect grade (Chenopodium album [1]) | P (Stellaria media) herbicidal effect grade (Stellaria media [2]) | R (Veronica persica) herbicidal effect grade (Veronica persica) | H: Echinochloa crus-galli var. crus-galli, herbicidal effect grade [3] | K: Lolium multiflorum Lam., herbicidal effect grade (Lolium multiflorum Lam.) | M: Abutilon theophrasti, herbicidal effect grade (Abutilon theophrasti) | N: Amaranthus retroflexus, herbicidal effect grade (Amaranthus retroflexus) | O: Chenopodium album, herbicidal effect grade (Chenopodium album [4]) | P: Stellaria media, herbicidal effect grade (Stellaria media [5]) | c: corn, effect on crop grade (corn) | g: rapeseed, effect on crop grade (rapeseed) | G: Setaria viridis, herbicidal effect grade (Setaria viridis) | I: Avena fatua, herbicidal effect grade (Avena fatua) | other results
1 | CC(CC1CC(O)=C(c2c(C)cc(C)cc2C)C1=O)=NOCC[Si](C)(C)C (stereo not drawn) [1-055] | 0 (Herbicidal ratio of 5% or lower (almost no effect)) | 5 (Herbicidal ratio of 90% or more (almost completely withered)) | 5 (Herbicidal ratio of 90% or more (almost completely withered)) | 4 (Herbicidal ratio of 70% or higher and lower than 90%) | 0 (Herbicidal ratio of 5% or lower (almost no effect)) | 1 (Herbicidal ratio of 5% or higher and lower than 20%) | 2 (Herbicidal ratio of 20% or higher and lower than 40%) | 0 (Herbicidal ratio of 5% or lower (almost no effect)) | 0 (Herbicidal ratio of 5% or lower (almost no effect)) | 0 (Herbicidal ratio of 5% or lower (almost no effect)) | 4 (Herbicidal ratio of 70% or higher and lower than 90%) | 5 (Herbicidal ratio of 90% or more (almost completely withered)) | 0 (Herbicidal ratio of 5% or lower (almost no effect)) | 0 (Herbicidal ratio of 5% or lower (almost no effect)) | 1 (Herbicidal ratio of 5% or higher and lower than 20%) | 0 (Herbicidal ratio of 5% or lower (almost no effect)) | 3 (Herbicidal ratio of 40% or higher and lower than 70%) | 3 (Herbicidal ratio of 40% or higher and lower than 70%) | – | – | –
2 | CON=C(C)CC1CC(OC(=O)COc2ccc(Br)cc2)=C(c2c(C)cc(C)cc2C)C1=O (stereo not drawn) [1-081] | 2 (Herbicidal ratio of 20% or higher and lower than 40%) | 5 (Herbicidal ratio of 90% or more (almost completely withered)) | 5 (Herbicidal ratio of 90% or more (almost completely withered)) | – | – | – | – | – | – | – | – | – | – | – | – | – | – | – | 5 (Herbicidal ratio of 90% or more (almost completely withered)) | 3 (Herbicidal ratio of 40% or higher and lower than 70%) | J: Alopecurus myosuroides, herbicidal effect grade (Alopecurus myosuroides): 5 (Herbicidal ratio of 90% or more (almost completely withered)); L: Apera spica-venti, herbicidal effect grade (Apera spica-venti): 5 (Herbicidal ratio of 90% or more (almost completely withered)); O: Chenopodium album, herbicidal effect grade (Chenopodium album [1]): 0 (Herbicidal ratio of 5% or lower (almost no effect)); P: Stellaria media, herbicidal effect grade (Stellaria media [2]): 0 (Herbicidal ratio of 5% or lower (almost no effect)); R: Veronica persica, herbicidal effect grade (Veronica persica): 0 (Herbicidal ratio of 5% or lower (almost no effect)); H: Echinochloa crus-galli var. crus-galli, herbicidal effect (criteria 0-5) [3]: 5 (Herbicidal ratio of 90% or more (almost completely withered)); K: Lolium multiflorum Lam., herbicidal effect (criteria 0-5) (Lolium multiflorum Lam.): 5 (Herbicidal ratio of 90% or more (almost completely withered)); M: Abutilon theophrasti, herbicidal effect (criteria 0-5) (Abutilon theophrasti): 4 (Herbicidal ratio of 70% or higher and lower than 90%); N: Amaranthus retroflexus, herbicidal effect (criteria 0-5) (Amaranthus retroflexus): 5 (Herbicidal ratio of 90% or more (almost completely withered)); O: Chenopodium album, herbicidal effect (criteria 0-5) (Chenopodium album [4]): 3 (Herbicidal ratio of 40% or higher and lower than 70%); P: Stellaria media, herbicidal effect (criteria 0-5) (Stellaria media [5]): 0 (Herbicidal ratio of 5% or lower (almost no effect)); c: corn, effect on crop (criteria 0-5) (corn): 5 (Herbicidal ratio of 90% or more (almost completely withered)); g: rapeseed, effect on crop (criteria 0-5) (rapeseed): 5 (Herbicidal ratio of 90% or more (almost completely withered))
3 | CCCCCCCON=C(C)CC1CC(O)=C(c2c(C)cc(C)cc2C)C1=O (stereo not drawn) [1-054] | 0 (Herbicidal ratio of 5% or lower (almost no effect)) | 5 (Herbicidal ratio of 90% or more (almost completely withered)) | 3 (Herbicidal ratio of 40% or higher and lower than 70%) | 5 (Herbicidal ratio of 90% or more (almost completely withered)) | 0 (Herbicidal ratio of 5% or lower (almost no effect)) | 1 (Herbicidal ratio of 5% or higher and lower than 20%) | 1 (Herbicidal ratio of 5% or higher and lower than 20%) | 0 (Herbicidal ratio of 5% or lower (almost no effect)) | 0 (Herbicidal ratio of 5% or lower (almost no effect)) | 0 (Herbicidal ratio of 5% or lower (almost no effect)) | 4 (Herbicidal ratio of 70% or higher and lower than 90%) | 5 (Herbicidal ratio of 90% or more (almost completely withered)) | 0 (Herbicidal ratio of 5% or lower (almost no effect)) | 0 (Herbicidal ratio of 5% or lower (almost no effect)) | 0 (Herbicidal ratio of 5% or lower (almost no effect)) | 0 (Herbicidal ratio of 5% or lower (almost no effect)) | 0 (Herbicidal ratio of 5% or lower (almost no effect)) | 3 (Herbicidal ratio of 40% or higher and lower than 70%) | – | – | –
4 | CON=C(C)CC1CC(OC(=O)COc2ccc(C=O)cc2)=C(c2c(C)cc(C)cc2C)C1=O (stereo not drawn) [1-079] | 3 (Herbicidal ratio of 40% or higher and lower than 70%) | 5 (Herbicidal ratio of 90% or more (almost completely withered)) | 5 (Herbicidal ratio of 90% or more (almost completely withered)) | – | – | – | – | – | – | – | – | – | – | – | – | – | – | – | 5 (Herbicidal ratio of 90% or more (almost completely withered)) | 3 (Herbicidal ratio of 40% or higher and lower than 70%) | J: Alopecurus myosuroides, herbicidal effect grade (Alopecurus myosuroides): 5 (Herbicidal ratio of 90% or more (almost completely withered)); L: Apera spica-venti, herbicidal effect grade (Apera spica-venti): 5 (Herbicidal ratio of 90% or more (almost completely withered)); O: Chenopodium album, herbicidal effect grade (Chenopodium album [1]): 0 (Herbicidal ratio of 5% or lower (almost no effect)); P: Stellaria media, herbicidal effect grade (Stellaria media [2]): 0 (Herbicidal ratio of 5% or lower (almost no effect)); R: Veronica persica, herbicidal effect grade (Veronica persica): 0 (Herbicidal ratio of 5% or lower (almost no effect)); H: Echinochloa crus-galli var. crus-galli, herbicidal effect (criteria 0-5) [3]: 5 (Herbicidal ratio of 90% or more (almost completely withered)); K: Lolium multiflorum Lam., herbicidal effect (criteria 0-5) (Lolium multiflorum Lam.): 5 (Herbicidal ratio of 90% or more (almost completely withered)); M: Abutilon theophrasti, herbicidal effect (criteria 0-5) (Abutilon theophrasti): 4 (Herbicidal ratio of 70% or higher and lower than 90%); N: Amaranthus retroflexus, herbicidal effect (criteria 0-5) (Amaranthus retroflexus): 0 (Herbicidal ratio of 5% or lower (almost no effect)); O: Chenopodium album, herbicidal effect (criteria 0-5) (Chenopodium album [4]): 0 (Herbicidal ratio of 5% or lower (almost no effect)); P: Stellaria media, herbicidal effect (criteria 0-5) (Stellaria media [5]): 1 (Herbicidal ratio of 5% or higher and lower than 20%); c: corn, effect on crop (criteria 0-5) (corn): 5 (Herbicidal ratio of 90% or more (almost completely withered)); g: rapeseed, effect on crop (criteria 0-5) (rapeseed): 5 (Herbicidal ratio of 90% or more (almost completely withered))
